Test results from US20250288652A1, “BACTERIOPHAGE LYSINE, CHIMERA THEREOF AND APPLICATION THEREOF” (priority 2021, published 2025).
“And” between values parts separate entries of the source, which are not always exact repeats. Equal values may be shown once.

Tests used:
Assay type in all cases: cell-based
Propionibacterium acnes [1] = test: MIC of selected lysin after single-step purification, Example 8; details: single-step purified lysin
Protocol: Express PACL 10, 390, 391, 392, 403 and 404 according to the method of Examples 1-4, and perform the following single-step purification: put Escherichia coli BL21 (DE3) containing each recombinant expression plasmid in the self-induction medium incubate at 37° C., 300 rpm for 3 hours, then at 18° C., 300 rpm for 16-18 hours. Cells were collected by centrifugation and lysed by homogenizatoin under high pressure. Clarified lysate from 1 L of E. coli culture medium expressing the protein of interest was loaded onto a 26 mm/200 mm column containing 70 mL of purification resin. The lysin was purified according to the conditions in Table 8-1, and the purity determination of the lyase after single-step purification is shown in FIG. 5. These lysin are used to determine the minimal inhibitory concentration (MIC).
The minimal inhibitory concentration (MIC) determination method is as follows. Propionibacterium acnes is streaked on Fortified Clostridium Agar (Fortified Clostridium Medium RCM with 1.5% agar, RCM was prepared according to the revised recipe, per liter—10 g acid hydrolyzed casein, 10 g beef extract, 3 g yeast extract, 5 g D—glucose, 5 g sodium chloride, 3 g sodium acetate, 0.5 g L-cysteine hydrochloride). Plates were incubated anaerobically at 37° C. for 72 hours. The inoculum for MIC determination was first prepared by resuspending single clones from RCA in 0.9% saline to an OD600 of 0.05, corresponding to 10^7 colony-forming units per milliliter (cfu/mL). The suspension was diluted 20-fold in RCM to an inoculum of 5*10^5 cfu/mL. Two-fold serial dilutions of each lyase were prepared in 0.9% saline and added not to exceed one-tenth of the total culture volume. Cultures were grown anaerobically at 37° C. for 48-72 hours. The MIC is the lowest concentration of lyase at which no growth of P. acnes can be observed with the naked eye.

Propionibacterium acnes [2] = test: Minimum inhibitory concentration (MIC) determination, Example 6; details: Cutibacterium acnes
Protocol: (§1) The minimal inhibitory concentration (MIC) determination method is as follows. First prepare a colony suspension in 0.9% saline to an OD600 of 0.05 to prepare an inoculum, which corresponds to 10^7 colony-forming units per mL (cfu/mL). The suspension was diluted 20 times in agar-free enhanced Clostridium medium (RCM) to an inoculum of 5*10^5 cfu/mL. Prepare 2-fold serial dilutions of PACL10 or vancomycin with 0.9% saline and add no more than one-tenth of the total culture. Cultures were grown anaerobically at 37° C. for 3 days. The MIC is the lowest concentration of PACL10 or vancomycin at which no growth of P. acnes can be observed with the naked eye. The minimum bactericidal concentration (MBC) was determined by subculturing the above cultures on enhanced Clostridium agar (RCA) plates containing 0.1% Tween-80. MBC is the lowest concentration of PACL10 or vancomycin at which no P. acnes colonies are seen on the enhanced Clostridium agar (RCA) plate.

Propionibacterium acnes [3] = test: Minimum bactericidal concentration (MBC) determination, Example 6; details: Cutibacterium acnes
Protocol: as §1

## CN(C)[C@@H]1C(O)=C(C(N)=O)C(=O)[C@@]2(O)C(O)=C3C(=O)c4c(O)cccc4[C@@](C)(O)[C@H]3C[C@@H]12 [Tetracycline, reference compound]
Propionibacterium acnes [1]; Cutibacterium acnes, clade IA2, strain 33, read-out: MIC of selected lyases relative to Propionibacterium acnes
  MIC: 8 µg/mL
Propionibacterium acnes [1]; clade IA1, strain 1
  MIC of selected lyases relative to Propionibacterium acnes: 8 µg/mL
Propionibacterium acnes [1]; clade IA1, strain 5
  MIC of selected lyases relative to Propionibacterium acnes: 8 µg/mL
Propionibacterium acnes [1]; clade IA1, strain 7
  MIC of selected lyases relative to Propionibacterium acnes: 8 µg/mL
Propionibacterium acnes [1]; clade IA2, strain 10
  MIC of selected lyases relative to Propionibacterium acnes: 8 µg/mL
Propionibacterium acnes [1]; clade IA2, strain 17
  MIC of selected lyases relative to Propionibacterium acnes: 8 µg/mL
Propionibacterium acnes [1]; clade II, strain 34
  MIC of selected lyases relative to Propionibacterium acnes: 8 µg/mL

## CN[C@H](CC(C)C)C(=O)N[C@H]1C(=O)N[C@@H](CC(N)=O)C(=O)N[C@H]2C(=O)N[C@H]3C(=O)N[C@H](C(=O)N[C@H](C(=O)O)c4cc(O)cc(O)c4-c4cc3ccc4O)[C@H](O)c3ccc(c(Cl)c3)Oc3cc2cc(c3O[C@@H]2O[C@H](CO)[C@@H](O)[C@H](O)[C@H]2O[C@H]2C[C@](C)(N)[C@H](O)[C@H](C)O2)Oc2ccc(cc2Cl)[C@H]1O [Vancomycin, reference compound]
Propionibacterium acnes [2]; clade IA1, strain 1
  MIC: 0.5 µg/mL and 0.337 µM
Propionibacterium acnes [2]; clade IA1, strain 5
  MIC: 1 µg/mL and 0.673 µM
Propionibacterium acnes [2]; clade IA1, strain 7
  MIC: 0.5 µg/mL and 0.337 µM
Propionibacterium acnes [2]; clade IA1, strain 15
  MIC: 1 µg/mL and 0.673 µM
Propionibacterium acnes [2]; clade IA1, strain 27
  MIC: 1 µg/mL and 0.673 µM
Propionibacterium acnes [2]; clade IA2, strain 10
  MIC: 0.5 µg/mL and 0.337 µM
Propionibacterium acnes [2]; clade IA2, strain 14
  MIC: 0.5 µg/mL and 0.337 µM
Propionibacterium acnes [2]; clade IA2, strain 17
  MIC: 0.5 µg/mL and 0.337 µM
Propionibacterium acnes [2]; clade IA2, strain 31
  MIC: 0.5 µg/mL and 0.337 µM
Propionibacterium acnes [2]; clade IA2, strain 33A
  MIC: 0.5 µg/mL and 0.337 µM
Propionibacterium acnes [2]; clade IB, strain 13
  MIC: 1 µg/mL and 0.673 µM
Propionibacterium acnes [2]; clade II, strain 34A
  MIC: 0.5 µg/mL and 0.337 µM
Propionibacterium acnes [3]; clade IA1, strain 1
  MBC: 0.5 µg/mL and 0.337 µM
Propionibacterium acnes [3]; clade IA1, strain 5
  MBC: 1 µg/mL and 0.673 µM
Propionibacterium acnes [3]; clade IA1, strain 7
  MBC: 1 µg/mL and 0.673 µM
Propionibacterium acnes [3]; clade IA1, strain 15
  MBC: 1 µg/mL and 0.673 µM
Propionibacterium acnes [3]; clade IA1, strain 27
  MBC: 1 µg/mL and 0.673 µM
Propionibacterium acnes [3]; clade IA2, strain 10
  MBC: 1 µg/mL and 0.673 µM
Propionibacterium acnes [3]; clade IA2, strain 14
  MBC: 1 µg/mL and 0.673 µM
Propionibacterium acnes [3]; clade IA2, strain 17
  MBC: 0.5 µg/mL and 0.337 µM
Propionibacterium acnes [3]; clade IA2, strain 31
  MBC: 0.5 µg/mL and 0.337 µM
Propionibacterium acnes [3]; clade IA2, strain 33A
  MBC: 1 µg/mL and 0.673 µM
Propionibacterium acnes [3]; clade IB, strain 13
  MBC: 1 µg/mL and 0.673 µM
Propionibacterium acnes [3]; clade II, strain 34A
  MBC: 0.5 µg/mL and 0.337 µM

B1: PACL391: chimeric lysin, amino acid sequence SEQ ID NO: 259 (protein)
chain: MTFIQAAHHSSGSNLPPTRVVIHATCPELGFPRASAKGRAVSTARYFQSAISGGSAHYVVDVGETVQCLAEDVIAWHAPPNSRSLGIEICADGGSATSFKNPNVRYSRAQWLSPQVWPAVLRAAALTRQMCQKYGIPVTKLSASDLKAGKKGICGHVDVSNAWHQSDHDDPGPDFPWAEFMAAVKGGATNPGGEVRTPGQQDTKPSVPTPSLTEIGDQDMNGCYYNLNSKTRTYLIFDSRSGFYHEFSQGNGNGPMSPDYVNPIAKGWDTGSWPAISPGHAKVLKAALDKVRKGI
modifications: PACL391
Propionibacterium acnes [1]; clade IA1, strain 1
  MIC of selected lyases relative to Propionibacterium acnes: 8 µg/mL
Propionibacterium acnes [1]; clade IA1, strain 5
  MIC of selected lyases relative to Propionibacterium acnes: 16 µg/mL
Propionibacterium acnes [1]; clade IA1, strain 7
  MIC of selected lyases relative to Propionibacterium acnes: 8 µg/mL
Propionibacterium acnes [1]; clade IA2, strain 10
  MIC of selected lyases relative to Propionibacterium acnes: 32 µg/mL
Propionibacterium acnes [1]; clade IA2, strain 17
  MIC of selected lyases relative to Propionibacterium acnes: 32 µg/mL
Propionibacterium acnes [1]; clade IA2, strain 33
  MIC of selected lyases relative to Propionibacterium acnes: 16 µg/mL
Propionibacterium acnes [1]; clade II, strain 34
  MIC of selected lyases relative to Propionibacterium acnes: 8 µg/mL

B2: PACL390: chimeric lysin, amino acid sequence SEQ ID NO: 258 (protein)
chain: MTFIQAAHHSSGSNLPPTRVVIHATCPEMGFPKASAKGRAVSTARYFQSASSGGSAHYVVDIGETVQCLGENVIAWHAPPNAHSLGIEICADGGSATSFSNPKVRYTRAQWLSPQVWPAVLRAAALTRKMCSKYGIPVVKLSASDLKAGKKGICGHVDVSNAFHQSDHDDPGPDFPWAEFMAAVKGGPGQQDTKPSVPTPSLTEIGDQDMNGCYYNLNSKTRTYLIFDSRSGFYHEFSQGNGNGPMSPDYVNPIAKGWDTGSWPAISPGHAKVLKAALDKVRKGI
modifications: PACL390
Propionibacterium acnes [1]; clade IA1, strain 1
  MIC of selected lyases relative to Propionibacterium acnes: 8 µg/mL
Propionibacterium acnes [1]; clade IA1, strain 5
  MIC of selected lyases relative to Propionibacterium acnes: 8 µg/mL
Propionibacterium acnes [1]; clade IA1, strain 7
  MIC of selected lyases relative to Propionibacterium acnes: 8 µg/mL
Propionibacterium acnes [1]; clade IA2, strain 10
  MIC of selected lyases relative to Propionibacterium acnes: 8 µg/mL
Propionibacterium acnes [1]; clade IA2, strain 17
  MIC of selected lyases relative to Propionibacterium acnes: 8 µg/mL
Propionibacterium acnes [1]; clade IA2, strain 33
  MIC of selected lyases relative to Propionibacterium acnes: 8 µg/mL
Propionibacterium acnes [1]; clade II, strain 34
  MIC of selected lyases relative to Propionibacterium acnes: 8 µg/mL

B3: PACL404: chimeric lysin, amino acid sequence SEQ ID NO: 272 (protein)
chain: MTFIQAAHHSSGSNLPPTRVVIHATCPEMGFPKASAKGRAVSTARYFQSASSGGSAHYVVDIGETVQCLGENVIAWHAPPNAHSLGIEICADGGSATSFSNPKVRYTRAQWLSPQVWPAVLRAAALTRKMCSKYGIPVVKLSASDLKAGKKGICGHVDVSNAFHQSDHDDPGPDFPWAEFMAAVKGGTTTQEDEDEMKEAGGPGQQDTKPSVPTPSLTEIGDQDMNGCYYNLNSKTRTYLIFDSRSGFYHEFSQGNGNGPMSPDYVNPIAKGWDTGSWPAISPGHAKVLKAALDKVRKGI
modifications: PACL404
Propionibacterium acnes [1]; clade IA1, strain 1
  MIC of selected lyases relative to Propionibacterium acnes: 8 µg/mL
Propionibacterium acnes [1]; clade IA1, strain 5
  MIC of selected lyases relative to Propionibacterium acnes: 16 µg/mL
Propionibacterium acnes [1]; clade IA1, strain 7
  MIC of selected lyases relative to Propionibacterium acnes: 16 µg/mL
Propionibacterium acnes [1]; clade IA2, strain 10
  MIC of selected lyases relative to Propionibacterium acnes: 16 µg/mL
Propionibacterium acnes [1]; clade IA2, strain 17
  MIC of selected lyases relative to Propionibacterium acnes: 8 µg/mL
Propionibacterium acnes [1]; clade IA2, strain 33
  MIC of selected lyases relative to Propionibacterium acnes: 8 µg/mL
Propionibacterium acnes [1]; clade II, strain 34
  MIC of selected lyases relative to Propionibacterium acnes: 8 µg/mL

B4: PACL392: chimeric lysin, amino acid sequence SEQ ID NO: 260 (protein)
chain: MTFIQAAHHSSGSNLPPTRVVIHATCPELGFPRASAKGRAVSTARYFQSAISGGSAHYVVDVGETVQCLAEDVIAWHAPPNSRSLGIEICADGGSATSFKNPNVRYSRAQWLSPQVWPAVLRAAALTRQMCQKYGIPVTKLSASDLKAGKKGICGHVDVSNAWHQSDHDDPGPDFPWAEFMAAVKGGATNPGGPGQQDTKPSVPTPSLTEIGDQDMNGCYYNLNSKTRTYLIFDSRSGFYHEFSQGNGNGPMSPDYVNPIAKGWDTGSWPAISPGHAKVLKAALDKVRKGI
modifications: PACL392
Propionibacterium acnes [1]; clade IA1, strain 1
  MIC of selected lyases relative to Propionibacterium acnes: 8 µg/mL
Propionibacterium acnes [1]; clade IA1, strain 5
  MIC of selected lyases relative to Propionibacterium acnes: 8 µg/mL
Propionibacterium acnes [1]; clade IA1, strain 7
  MIC of selected lyases relative to Propionibacterium acnes: 8 µg/mL
Propionibacterium acnes [1]; clade IA2, strain 10
  MIC of selected lyases relative to Propionibacterium acnes: 16 µg/mL
Propionibacterium acnes [1]; clade IA2, strain 17
  MIC of selected lyases relative to Propionibacterium acnes: 16 µg/mL
Propionibacterium acnes [1]; clade IA2, strain 33
  MIC of selected lyases relative to Propionibacterium acnes: 8 µg/mL
Propionibacterium acnes [1]; clade II, strain 34
  MIC of selected lyases relative to Propionibacterium acnes: 8 µg/mL
